US10927096B2, “Ester substituted ion channel blockers and methods for use” (Nocion Therapeutics, Inc., priority 2019, dated 2021)

Molecular target: T1, NaV1.7 (Homo sapiens, UniProt Q15858)
T1 construct: expressed in transfected cells; host or cells: HEK293, tetracycline-inducible
Experiment: Whole cell patch clamp, internal block of NaV1.7 current
Format: cell-based
Conditions: % inhibition at 1 μM test concentration, compound in internal solution, manual whole cell patch clamp
In short: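 Tetracycline-induced cells recorded 18-24 h post-induction at room temperature, compound dissolved in CsCl internal solution (pH 7.2), Ringer bath pH 7.4. From −100 mV holding, 10 ms steps to −20 mV; baseline at 30 s intervals, then four 30 s trains at 5 Hz. Fraction current remaining = last-train peak/baseline, versus control-internal cells.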

T1 sequence (Q15858 whole entry): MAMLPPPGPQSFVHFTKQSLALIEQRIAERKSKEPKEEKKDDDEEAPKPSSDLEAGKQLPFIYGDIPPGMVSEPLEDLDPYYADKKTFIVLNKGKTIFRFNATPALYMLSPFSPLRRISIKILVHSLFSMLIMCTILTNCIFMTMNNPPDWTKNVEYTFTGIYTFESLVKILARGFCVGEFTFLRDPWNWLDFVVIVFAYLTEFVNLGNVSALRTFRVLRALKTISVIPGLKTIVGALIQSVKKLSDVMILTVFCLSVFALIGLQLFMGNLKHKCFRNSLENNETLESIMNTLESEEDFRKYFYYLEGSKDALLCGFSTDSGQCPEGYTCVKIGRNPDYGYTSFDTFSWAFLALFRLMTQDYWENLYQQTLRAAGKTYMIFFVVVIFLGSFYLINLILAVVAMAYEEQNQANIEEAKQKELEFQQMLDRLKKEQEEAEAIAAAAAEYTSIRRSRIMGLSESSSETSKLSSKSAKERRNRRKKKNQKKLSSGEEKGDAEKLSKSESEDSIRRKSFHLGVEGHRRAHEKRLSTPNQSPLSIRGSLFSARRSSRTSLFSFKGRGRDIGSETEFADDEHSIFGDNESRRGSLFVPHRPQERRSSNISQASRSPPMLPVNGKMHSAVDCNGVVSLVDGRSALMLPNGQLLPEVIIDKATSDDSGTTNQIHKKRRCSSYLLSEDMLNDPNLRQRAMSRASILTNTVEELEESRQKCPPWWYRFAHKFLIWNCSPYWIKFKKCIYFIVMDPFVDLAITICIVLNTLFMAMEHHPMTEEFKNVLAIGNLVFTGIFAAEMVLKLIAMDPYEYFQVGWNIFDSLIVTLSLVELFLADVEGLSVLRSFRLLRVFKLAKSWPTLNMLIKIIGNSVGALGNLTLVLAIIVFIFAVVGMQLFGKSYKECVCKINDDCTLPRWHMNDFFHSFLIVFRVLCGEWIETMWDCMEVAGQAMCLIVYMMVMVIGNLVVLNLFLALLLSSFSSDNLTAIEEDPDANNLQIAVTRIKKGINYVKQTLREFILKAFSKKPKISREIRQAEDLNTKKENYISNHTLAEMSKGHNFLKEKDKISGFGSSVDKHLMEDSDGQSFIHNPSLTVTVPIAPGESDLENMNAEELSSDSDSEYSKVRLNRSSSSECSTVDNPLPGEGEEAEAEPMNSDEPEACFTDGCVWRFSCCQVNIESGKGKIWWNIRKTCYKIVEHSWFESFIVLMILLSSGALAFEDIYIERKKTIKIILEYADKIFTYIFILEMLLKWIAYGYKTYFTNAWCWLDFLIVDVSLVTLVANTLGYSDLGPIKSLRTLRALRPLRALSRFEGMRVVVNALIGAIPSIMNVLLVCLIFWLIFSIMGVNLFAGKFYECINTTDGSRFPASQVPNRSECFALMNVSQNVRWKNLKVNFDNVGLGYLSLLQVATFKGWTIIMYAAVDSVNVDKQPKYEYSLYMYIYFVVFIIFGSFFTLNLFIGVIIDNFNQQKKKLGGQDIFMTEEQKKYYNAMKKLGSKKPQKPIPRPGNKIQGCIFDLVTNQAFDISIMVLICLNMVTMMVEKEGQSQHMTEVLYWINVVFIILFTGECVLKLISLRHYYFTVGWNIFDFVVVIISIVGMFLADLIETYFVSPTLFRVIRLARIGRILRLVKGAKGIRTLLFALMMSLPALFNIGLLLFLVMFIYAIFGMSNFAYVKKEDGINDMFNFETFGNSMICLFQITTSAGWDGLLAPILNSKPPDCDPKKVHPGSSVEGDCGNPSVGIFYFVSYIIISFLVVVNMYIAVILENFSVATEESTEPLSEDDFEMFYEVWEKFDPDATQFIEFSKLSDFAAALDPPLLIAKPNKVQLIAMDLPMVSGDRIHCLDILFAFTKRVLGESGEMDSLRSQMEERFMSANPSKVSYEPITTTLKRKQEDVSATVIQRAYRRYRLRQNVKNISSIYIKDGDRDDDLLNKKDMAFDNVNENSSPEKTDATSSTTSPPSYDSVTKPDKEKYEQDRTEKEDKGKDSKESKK

CCN(CC)C(=O)C[N+]1(CC(=O)Nc2c(C)cccc2C(=O)OC)CCCC(c2ccccc2)C1 (mixture of isomers) [Compound 62]
NaV1.7 Intracellular Inhibition: ++ (70-30%)
